Laboratory results reported in patent publication US20240216370A1, “TREATMENT OF CORNEAL VASCULARISATION” (VESTLANDETS INNOVASJONSSELSKAP AS, priority 2020, published 2024).
“Also recorded” adds a separate entry of the source.

Key:
[1] = tested on: OPDKD patient; test: Oral (systemic) imatinib treatment of an OPDKD patient, effect in the eye; format: in vivo, human; conditions: systemic imatinib for almost one year, 6 months at maximal recommended dose of 800 mg
[2] = molecular target: T1, PDGFRβ (N666Y) (Homo sapiens, UniProt P09619, N666Y); test: ELISA analysis of phosphorylated PDGFRβ in OPDKD patient fibroblasts; format: cell-based
T1 construct: Fibroblasts from affected individuals and healthy controls were obtained; endogenous in cells; host or cells: fibroblasts from OPDKD patients
Method: Fibroblasts from affected individuals and healthy controls were obtained. Transgenic HeLa cells were transduced with a murine retroviral vector containing the PDGFRβ (NM_002609.3) c.wt, c. 1996A>T (OPDKD) and c.1997A>G (a different activating mutation associated with severe Penttinen syndrome) variants.
In OPDKD, the affected parts of the body (corneas and skin, particular fingers and toes) are all exposed to variable temperatures. ^8 At a typical room temperature (20-22° C.) corneal temperatures lie around 32-34° and fall to around 30° C. as air temperatures reaches 0° C. ^9 We studied the effect of this physiological temperature difference on PDGFRβ auto-phosphorylation and signaling in OPDKD. Cells were either kept at 37° ° C. or incubated overnight at 32° C. […] For ELISA analysis of phosphorylated PDGFRβ, a DuoSet® IC Phospho-PDGFRβ kit (R&D systems) was used. Cell lysates were also subjected to immunoblot analysis with primary antibodies against downstream signaling partners: phospho-Ser473-AKT, phospho-Thr308-AKT, phospho-Tyr70-STAT1, STAT1, phospho-Tyr783-PLCγ1, PLCγ1, phospho-Thr202/Tyr204-MAPK3/ERK1 and MAPK3/ERK1 (all from Cell Signaling Technology). […]

[3] = tested on: AKT; test: Immunoblot of downstream signaling partner AKT (phospho-Ser473, phospho-Thr308) in patient fibroblasts; format: cell-based, human; conditions: 0.1 μM imatinib
Method: Cells were either kept at 37° ° C. or incubated overnight at 32° C. Cells were then left untreated or treated with 0.1 μM imatinib (STI571, Selleckchem) for 6 hours. For ELISA analysis of phosphorylated PDGFRβ, a DuoSet® IC Phospho-PDGFRβ kit (R&D systems) was used. Cell lysates were also subjected to immunoblot analysis with primary antibodies against downstream signaling partners: phospho-Ser473-AKT, phospho-Thr308-AKT, phospho-[MUT]-STAT1, STAT1, phospho-[MUT]-PLCγ1, PLCγ1, phospho-Thr202/Tyr204-MAPK3/ERK1 and MAPK3/ERK1 (all from Cell Signaling Technology).

T1 sequence (P09619 33-1106 N666Y): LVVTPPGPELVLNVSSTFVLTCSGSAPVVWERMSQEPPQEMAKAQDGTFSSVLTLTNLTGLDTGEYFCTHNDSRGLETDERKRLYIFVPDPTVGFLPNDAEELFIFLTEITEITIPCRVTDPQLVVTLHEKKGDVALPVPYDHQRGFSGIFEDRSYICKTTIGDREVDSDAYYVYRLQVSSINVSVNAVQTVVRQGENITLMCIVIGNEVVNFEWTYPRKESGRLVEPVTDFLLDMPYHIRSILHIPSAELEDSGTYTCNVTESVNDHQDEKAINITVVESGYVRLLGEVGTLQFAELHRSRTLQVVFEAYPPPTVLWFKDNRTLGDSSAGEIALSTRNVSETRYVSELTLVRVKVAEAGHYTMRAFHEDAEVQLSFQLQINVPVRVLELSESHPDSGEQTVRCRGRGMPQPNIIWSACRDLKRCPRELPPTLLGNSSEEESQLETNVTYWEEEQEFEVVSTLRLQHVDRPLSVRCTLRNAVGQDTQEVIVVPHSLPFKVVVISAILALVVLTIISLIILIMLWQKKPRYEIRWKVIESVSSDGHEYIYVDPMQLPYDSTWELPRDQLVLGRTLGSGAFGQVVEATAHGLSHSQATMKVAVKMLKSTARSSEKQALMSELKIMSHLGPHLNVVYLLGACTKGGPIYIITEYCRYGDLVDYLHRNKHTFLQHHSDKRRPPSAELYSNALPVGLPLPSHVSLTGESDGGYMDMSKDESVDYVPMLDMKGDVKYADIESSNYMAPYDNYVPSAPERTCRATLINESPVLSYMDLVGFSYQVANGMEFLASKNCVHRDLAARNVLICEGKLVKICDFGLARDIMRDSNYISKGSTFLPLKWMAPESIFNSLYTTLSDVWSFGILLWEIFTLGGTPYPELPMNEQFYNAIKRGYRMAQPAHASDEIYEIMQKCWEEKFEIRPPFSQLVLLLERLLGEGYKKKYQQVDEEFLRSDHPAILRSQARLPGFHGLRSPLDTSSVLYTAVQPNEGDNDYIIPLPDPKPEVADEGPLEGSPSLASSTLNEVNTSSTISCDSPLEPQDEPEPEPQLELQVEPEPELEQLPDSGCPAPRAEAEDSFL

For `Cc1ccc(NC(=O)c2ccc(CN3CCN(C)CC3)cc2)cc1Nc1nccc(-c2cccnc2)n1` [imatinib], the “effect of the drug on the eye of an OPDKD patient” value [1] was “no effect; also recorded: without effect”, the “sensitivity of OPDKD fibroblasts compared with Penttinen fibroblasts” value ([2]; OPDKD (N666Y) vs Penttinen (N666S) fibroblasts) was “less sensitive” and the “effect on levels of P-PDGFRβ and downstream proteins” value ([2]; OPDKD fibroblasts, imatinib, 6 hours) was “clear, dose dependent effect”. For the same molecule, the “levels of phosphorylated PDGFRβ” value ([2]; patient fibroblasts, high doses of imatinib (1 μM)) was “normalization” and the “phosphorylation of Ser473 and Thr308 AKT” value [3] was “Normalization”.
